Experimental data published in the supplement of paper PMC10307832.

Tests used:
Assay in all cases: relative viability (nuclei count vs DMSO), 5 days (fraction); higher = more cells survive
[1] = compound: C1=CC=C2C(=C1)N=C(S2)C(C#N)C3=NC(=NC=C3)NCCC4=CN=CC=C4 + COc1cccc2cc(-c3nc([C@H]4CC[C@H](C(=O)O)CC4)n4ncnc(N)c34)[nH]c12 [OSI-027] (partner 0.5 µM)
Method in brief: (§1)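 Each reported value is a median over duplicate plates. It expresses relative viability: treated-well nuclei count divided by vehicle-well nuclei count. Lung cancer cell lines in 1536-well plates were dosed by pin tool a day after seeding, alone with one drug or with a fixed anchor-drug dose plus five library-drug doses (not always all listed) in √10 steps, and nuclei were counted after 5 days.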

[2] = compound: C1=CC=C2C(=C1)N=C(S2)C(C#N)C3=NC(=NC=C3)NCCC4=CN=CC=C4 + NC(=O)Nc1cc(-c2cccc(F)c2)sc1C(=O)N[C@H]1CCCNC1 [AZD7762] (partner 0.2 µM)
Method in brief: as §1

NVP-TAE684 + Dasatinib = compound: COc1cc(N2CCC(N3CCN(C)CC3)CC2)ccc1Nc1ncc(Cl)c(Nc2ccccc2S(=O)(=O)C(C)C)n1 [NVP-TAE684] + Cc1nc(Nc2ncc(C(=O)Nc3c(C)cccc3Cl)s2)cc(N2CCN(CCO)CC2)n1 [Dasatinib] (partner 0.075 µM)
Method in brief: as §1

Vandetanib + Foretinib = compound: COc1cc2/c(=N/c3ccc(Br)cc3F)nc[nH]c2cc1OCC1CCN(C)CC1 [Vandetanib] + COc1cc2c(Oc3ccc(NC(=O)C4(C(=O)Nc5ccc(F)cc5)CC4)cc3F)ccnc2cc1OCCCN1CCOCC1 [Foretinib] (partner 0.25 µM)
Method in brief: as §1

Cell Line	relative viability ([1]; first compound 0.005 µM)	relative viability ([1]; first compound 0.01581 µM)	relative viability ([1]; first compound 0.05 µM)	relative viability ([1]; first compound 0.1581 µM)	relative viability ([1]; first compound 0.5 µM)	relative viability ([2]; first compound 0.005 µM)	relative viability ([2]; first compound 0.01581 µM)	relative viability ([2]; first compound 0.05 µM)	relative viability ([2]; first compound 0.1581 µM)	relative viability ([2]; first compound 0.5 µM)	relative viability (NVP-TAE684 + Dasatinib; first compound 0.2 µM)	relative viability (NVP-TAE684 + Dasatinib; first compound 0.6325 µM)	relative viability (NVP-TAE684 + Dasatinib; first compound 2 µM)	relative viability (Vandetanib + Foretinib; first compound 0.02 µM)	relative viability (Vandetanib + Foretinib; first compound 0.06325 µM)	relative viability (Vandetanib + Foretinib; first compound 0.2 µM)	relative viability (Vandetanib + Foretinib; first compound 0.6325 µM)	relative viability (Vandetanib + Foretinib; first compound 2 µM)
NCI-H2405	0.666	0.673	0.614	0.695	0.645	0.705	0.66	0.832	0.829	0.48	0.226	0.178	0.154	1.01	0.81	1.08	1.07	0.99
NCI-H2087	0.557	0.629	0.495	0.548	0.483	1.42	1.39	1.41	1.45	1.06	0.573	0.694	0.225	1.15	0.886	0.181	1.38	1.11
NCI-H2023	0.285	0.418	0.31	0.355	0.275						0.393	0.254	0.114	0.852	0.824	0.0955	0.591	0.431
NCI-H3122	0.671	0.923	0.895	1.34	0.819	0.975	1.16	0.96	1	1	0.239	0.119	0.0896	0.984	0.972	0.888	0.944	0.94
ChaGo-K-1		0.491	0.616	0.587	0.452	0.781	0.886	0.911	0.884	0.764	0.715	0.558	0.413	0.958	0.962	0.939	0.936	0.905
NCI-H2347	0.454	0.394	0.39	0.58	0.408	0.782	0.815	0.716	0.839	0.729	0.501	0.307	0.293	1.01		0.789	1.02	0.553
NCI-H460	0.281	0.735	0.67	0.727	0.238	0.508	0.641	0.672	0.69	0.43	0.703	0.285	0.0445	0.934	0.992	0.952	0.953	0.997
HCC-827	0.617	1.11	0.854	0.978	0.783	0.201	0.176	0.225	0.235	0.19	0.262	0.241	0.124	1.07	1	0.706	0.296	0.169
HOP-62	0.669	0.828	0.762	0.989	0.793	0.271	0.824	0.705	0.542	0.534	0.444	0.509	0.201	1.04	1.02	0.562	1.11	1.02
